Measured values reported in patent US11065335B2, “Methods of treating leukemia using compositions containing bis(benzylthio)octanoic acid and ion pairs thereof” (Rafael Pharmaceuticals, Inc., priority 2007, dated 2021).
Structures can show the parent of a compound that is named as a salt. Blank lines part the entries; values can stand above or below the molecule they belong to.

Key:
[1] = test system: Human H-460 Non Small Cell Lung Carcinoma (NSCLC) xenograft; assay: Anti-tumor activity in mice with Human H-460 NSCLC xenograft; assay type: in vivo
Protocol: A study to assess the dose and dosing schedule effects on the anti-tumor activity of bis-benzyl lipoate was undertaken. More specifically, the pharmaceutical formulations of bis-benzyl lipoate of Comparative Example 1, i.e., bis-benzyl lipoate dissolved in 1:1 Tween 80:ethanol and diluted with saline, were tested in mice with Human H-460 Non Small Cell Lung Carcinoma (NSCLC) xenograft. The pharmaceutical formulations were administered intraperitoneally (IP), given 1× or 3× weekly. Administration of bis-benzyl lipoate began when the average tumor size of the mice was ˜300 mm^3. There were originally eight treatment groups, with seven mice in each group, investigating three doses (0.1, 1 and 10 mg/kg) and two dosing schedules, as shown in Table 1 below.
Specifically, both subgroups of each treatment group were treated with the same dose of bis-benzyl lipoate as in the original protocol; however, one of the two subgroups was treated with a pharmaceutical formulation of bis-benzyl lipoate according to Comparative Example 1, i.e., bis-benzyl lipoate dissolved in 1:1 Tween 80:ethanol and diluted with saline, and the other subgroup was treated with a pharmaceutical formulation of bis-benzyl lipoate according to Example 1, i.e., dissolved in TEA and diluted with D5W. […]

[2] = Stability of the drug product by visual observation and HPLC; assay type: physicochemical; settings: 50 mg/mL in 1M triethanolamine
Protocol: Bis-benzyl lipoate was provided in a concentrated form at a concentration of 50 mg/mL dissolved in 1M triethanolamine (TEA). The stability of the drug product was assessed by visual observation and by high-performance liquid chromatography (HPLC) assessment, performed at the beginning and the end of the study. […] The concentrated bis-benzyl lipoate solution was diluted to an appropriate concentration with 5% dextrose (D5W) to formulate 0.1, 1 and 10 mg/kg doses of bis-benzyl lipoate.

[3] = CellTiter Glo cell viability assay, A2780 cells; settings: human, A2780 ovarian cancer cells, A2780 Cell Viability; for viability at 24 h, 800 μM: vehicle alone 800 μM; for viability at 24 h, 1600 μM: vehicle alone 1600 μM; for viability at 24 h, 3200 μM: vehicle alone 3200 μM
Protocol: (§1) Two types of human tumor cells were used in this investigation: BXPC3 human pancreatic cancer cells and A2780 human ovarian cancer cells. The BXPC3 cells were originally obtained from American Type Cell Culture (ATCC). The ovarian tumor cells were gifts from Roswell Park Cancer Institute, Buffalo, N.Y. All tumor cells were maintained at 37° C. in a humidified 5% CO2 atmosphere in T75 tissue culture flasks containing 20 mL of Roswell Park Memorial Institute (RPMI) 1640 containing 2 mM L-glutamine, 10% fetal bovine serum (FBS) and 1% penicillin and streptomycin (100 IU/mL penicillin and 100 μg/mL streptomycin). The tumor cells were split at a ratio of 1:5 every 4-5 days by trypsinization and resuspended in fresh medium in a new flask. Cells were harvested for experiments at 70-90% confluency.
(§2) CPI-613 (i.e., 6,8-bis(benzylthio)octanoic acid) stock solutions at concentrations of 8, 4, 2, 1.5 and 0.5 mM were prepared in the appropriate vehicles. The molar ratio of vehicle to CPI-613 was maintained at 8:1. The corresponding vehicle concentrations were 64, 32, 16, 12, and 4 mM respectively. A sixty-four mM aliquot of vehicle was dissolved in 10 mL of water. Next, 8 mM of CPI-613 was added and the mixture was stirred until a clear solution was obtained. […] A 5 μL aliquot of this stock solution was added to 95 μL of tumor cells in media. Upon dilution in the wells, the corresponding drug concentrations were 400, 200, 100, 75 and 25 μM respectively.
(§3) For the sodium salt and potassium salt form of CPI-613, 1 equivalent of CPI-613 solid was dissolved in water. Sixty-two mg of CPI-613 (0.00016 mol) was added to 10 mL of water, then 165 μL of 1M NaOH or KOH was added and stirred until a clear solution was obtained. This gave a 16 mM solution. The resulting 16 mM solution was then serially diluted, thereby providing 8 mM and 4 mM solutions of the CPI-613 salt form. For the ammonium salt, vehicle to drug ratio was maintained at 8:1 and the formulation was prepared using procedures analogous to those described above in Section 2 relating to preparation of CPI-613 formulations in different vehicles.
(§4) CPI-613 formulated in 1M triethanolamine (TEA) was used as an internal control during formulation screening. To prepare a 16 mM of working stock of CPI-613, 50 mg/mL of CPI-613 (128.66 mM of CPI-613 in 1M TEA) was diluted in complete cell culture media containing 10% FBS. That is, 310 μL of a 128.66 mM solution of CPI-613 in 1M TEA was added to 2.19 mL of cell culture media. This stock was further diluted serially in complete media to give 8 mM, 4 mM 2 mM, 1.5 mM and 0.5 mM working solutions. On the day of testing, 5 μL of this working solution was added to 95 μL of cell culture media (20 fold dilution) resulting final concentrations of 400, 200, 100, 75 and 25 μM CPI-613, respectively. The ratio of CPI-613 to TEA was maintained at 1:8 ratio at all times.
(§5) The cell viability of CPI-613 formulations formulated at a ratio of 1:8, CPI-613 to vehicle, was assessed by exposing the A2780 ovarian tumor cells and BXPC3 human pancreatic cancer cells to the following CPI-613 concentrations: 400 μM (3200 μM vehicle), 200 μM (1600 μM vehicle), 100 μM (800 μM vehicle), 75 μM (600 μM vehicle) and 25 μM (200 μM vehicle) The impact of corresponding vehicles at 3200, 1600 and 800 μM concentrations was also tested in tumor cells for cell viability. […] CPI-613 in TEA was used as an internal control. The tumor cells were treated for 24 hrs with the test article in serum-containing medium. After 24 hrs of treatment the number of viable tumor cells was determined.
(§6) The number of cells targeted for the study was 4×10^3 per well in 100 μL of medium. The actual number of cells were counted and seeded in the wells of a 96 well-plate. The cells were incubated for ˜24 hrs before addition of CPI-613.
(§7) For each cell line the concentrations of test articles or vehicles specified above was used.

[4] = CellTiter Glo cell viability assay, BXPC3 cells; settings: human, BXPC3 pancreatic cancer cells, BXPC3 Cell Viability; for viability at 24 h, 800 μM: vehicle alone 800 μM; for viability at 24 h, 1600 μM: vehicle alone 1600 μM; for viability at 24 h, 3200 μM: vehicle alone 3200 μM
Protocol: as §1, §2, §3, §4, §5, §6, §7

[5] = test system: A2780 ovarian tumor cells and BXPC3 human pancreatic cancer cells; assay: CellTiter Glo cell viability assay, text statements not split by cell line; assay type: cell-based; settings: for impact of vehicle on cancer cell killing: vehicle alone 3200 μM; for cell kill: 24 hrs
Protocol: Two types of human tumor cells were used in this investigation: BXPC3 human pancreatic cancer cells and A2780 human ovarian cancer cells. The BXPC3 cells were originally obtained from American Type Cell Culture (ATCC). […] The tumor cells were split at a ratio of 1:5 every 4-5 days by trypsinization and resuspended in fresh medium in a new flask. Cells were harvested for experiments at 70-90% confluency.
The corresponding vehicle concentrations were 64, 32, 16, 12, and 4 mM respectively. A sixty-four mM aliquot of vehicle was dissolved in 10 mL of water. […] A 5 μL aliquot of this stock solution was added to 95 μL of tumor cells in media. Upon dilution in the wells, the corresponding drug concentrations were 400, 200, 100, 75 and 25 μM respectively.
This gave a 16 mM solution.
This stock was further diluted serially in complete media to give 8 mM, 4 mM 2 mM, 1.5 mM and 0.5 mM working solutions.
The tumor cells were treated for 24 hrs with the test article in serum-containing medium. After 24 hrs of treatment the number of viable tumor cells was determined.
The number of cells targeted for the study was 4×10^3 per well in 100 μL of medium. The actual number of cells were counted and seeded in the wells of a 96 well-plate.
For each cell line the concentrations of test articles or vehicles specified above was used. Five μL of the working solution for each test article or vehicle was added to 95 μL of cell culture media. The corresponding final concentrations of test articles are 20 fold more diluted than the working solutions. […] Additionally, a set of wells was treated with cell culture medium in the absence of cells to obtain a value for background luminescence.
The number of viable cells was determined by using the CellTiter Glo® Assay. Specifically, reagents were mixed and allowed to come to room temperature according to instructions from Promega, Inc. (Madison, Wis.). Cell plates were removed from the cell culture incubator and left on the bench for 30 minutes until they reach room temperature. A one-hundred μL aliquot CellTiter Glo® reagent was added to each well with a 12-channel Eppendorf pipettor. The cells were lysed by shaking the plate for 2 minutes in a shaker. Then, the cells were kept at room temperature for 10 minutes to stabilize the luminescent signal. The luminescence was measured using the FLUOstar OPTIMA plate reader (BMG Labtech, Inc., Durham, N.C.).
Data from luminescence readings was copied onto EXCEL spreadsheets, and cell growth relative to untreated cells was calculated, using the following equation: […]
The calculated values were imported into SigmaPlot, v11. A Four-Parameter Logistic Curve of the “mean relative cell growth as a function of the concentrations of the test articles” was generated. The EC50 values were determined from the curves. The R-squared value provides an indication of the degree of fitness of data to the curve. For each experiment, the percentage of viable cells was be expressed as the mean of 9 replicates. The average was calculated by taking the mean±standard deviation of the three experiments.

[6] = test system: A2780 human ovarian cancer cells; assay: CellTiter Glo cell viability assay, A2780 cells; settings: Homo sapiens, A2780, 24 h
Protocol: as §1, §2, §3, §4, §5, §6, §7

[7] = test system: BXPC3 human pancreatic cancer cells; assay: CellTiter Glo cell viability assay, BXPC3 cells; settings: Homo sapiens, BXPC-3, 24 h
Protocol: as §1, §2, §3, §4, §5, §6, §7

- physical appearance (stability of the drug product, visual observation) ([2]; beginning and end of the study): did not change
- purity by HPLC (stability of the drug product) ([2]; both at the beginning and the end of the study): > 99%
Structure (SMILES): O=C(O)CCCCC(CCSCc1ccccc1)SCc1ccccc1 (stereo not drawn) [bis-benzyl lipoate, 6,8-bis(benzylthio)octanoic acid]
- anti-tumor effects compared to vehicle treatment ([1]; Comparative Example 1 formulation (Tween 80/ethanol/saline), IP, 0.1, 1, 10 mg/kg, 1x or 3x weekly): did not induce any anti-tumor effects
- H-460 tumor size versus 10 mg/kg in Comparative Example 1 formulation ([1]; Example 1 formulation (TEA/D5W), 0.1-10 mg/kg): may be smaller

Structure (SMILES): NCCCC[C@H](N)C(=O)O [Lysine]
- viability at 24 h, 800 μM [3]: > 95%
- viability at 24 h, 1600 μM [3]: > 95%
- viability at 24 h, 3200 μM [3]: > 95%
- viability at 24 h, 800 μM [4]: > 95%
- viability at 24 h, 1600 μM [4]: > 95%
- viability at 24 h, 3200 μM [4]: > 95%
- impact of vehicle on cancer cell killing [5]: did not show a significant impact on cancer cell killing

Structure (SMILES): CCN(CC)CC [Triethylamine]
- viability at 24 h, 800 μM [3]: > 95%
- viability at 24 h, 1600 μM [3]: > 95%
- viability at 24 h, 3200 μM [3]: > 95%
- viability at 24 h, 800 μM [4]: > 95%
- viability at 24 h, 1600 μM [4]: > 95%
- viability at 24 h, 3200 μM [4]: > 95%
- impact of vehicle on cancer cell killing [5]: did not show a significant impact on cancer cell killing

Structure (SMILES): O=C(O)CCCCC(CCSCc1ccccc1)SCc1ccccc1 (stereo not drawn) [CPI-613 ammonium salt]
- viability at 25 µM ([6]; read-out: A2780 Cell Viability (ammonium salt formulations), CPI-613 25 μM, ratio 1:8): > 95%
- viability at 75 µM ([6]; read-out: A2780 Cell Viability (ammonium salt formulations), CPI-613 75 μM, ratio 1:8): > 95%
- viability at 100 µM ([6]; read-out: A2780 Cell Viability (ammonium salt formulations), CPI-613 100 μM, ratio 1:8): 70 to 95%
- viability at 200 µM ([6]; read-out: A2780 Cell Viability (ammonium salt formulations), CPI-613 200 μM, ratio 1:8): 10 to 30%
- viability at 400 µM ([6]; read-out: A2780 Cell Viability (ammonium salt formulations), CPI-613 400 μM, ratio 1:8): < 10%
- viability at 25 µM ([7]; read-out: BXPC3 Cell Viability (ammonium salt formulations), CPI-613 25 μM, ratio 1:8): > 95%
- viability at 75 µM ([7]; read-out: BXPC3 Cell Viability (ammonium salt formulations), CPI-613 75 μM, ratio 1:8): > 95%
- viability at 100 µM ([7]; read-out: BXPC3 Cell Viability (ammonium salt formulations), CPI-613 100 μM, ratio 1:8): > 95%
- viability at 200 µM ([7]; read-out: BXPC3 Cell Viability (ammonium salt formulations), CPI-613 200 μM, ratio 1:8): 30 to 70%
- viability at 400 µM ([7]; read-out: BXPC3 Cell Viability (ammonium salt formulations), CPI-613 400 μM, ratio 1:8): < 10%
- cell kill ([5]; ammonium salt formulation at 200 μM): 70-80%
- cell kill ([5]; ammonium salt formulation at 400 μM): 100%
